Results from PubChem BioAssay (NCI).
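The compound was tested at five concentrations on cells cultured in 96-well plates, with a 48-hour exposure period. Here, GI50 denotes the concentration required for 50% inhibition of growth. Definition used: TGI = concentration required for complete inhibition of growth.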

Experiments:
Assay in all cases: NCI-60 cell line screen, 48 h
OVCAR-3 ovarian = test system: OVCAR-3 ovarian
SN12C renal = test system: SN12C renal
OVCAR-4 ovarian = test system: OVCAR-4 ovarian
T-47D breast = test system: T-47D breast
SNB-19 CNS = test system: SNB-19 CNS
MDA-N = test system: MDA-N
U251 CNS = test system: U251 CNS
LOX IMVI melanoma = test system: LOX IMVI melanoma
A549 NSCLC = test system: A549 NSCLC
SK-OV-3 ovarian = test system: SK-OV-3 ovarian

SMILES | TGI (OVCAR-3 ovarian) [µM] | TGI (SN12C renal) [µM] | TGI (OVCAR-4 ovarian) [µM] | TGI (T-47D breast) [µM] | TGI (SNB-19 CNS) [µM] | TGI (MDA-N) [µM] | TGI (U251 CNS) [µM] | TGI (LOX IMVI melanoma) [µM] | TGI (A549 NSCLC) [µM] | TGI (SK-OV-3 ovarian) [µM] | GI50 (OVCAR-3 ovarian) [µM] | GI50 (SN12C renal) [µM] | GI50 (SK-OV-3 ovarian) [µM] | GI50 (OVCAR-4 ovarian) [µM] | GI50 (T-47D breast) [µM] | GI50 (SNB-19 CNS) [µM] | GI50 (U251 CNS) [µM] | GI50 (LOX IMVI melanoma) [µM] | GI50 (A549 NSCLC) [µM]
CC(=O)NC1=C(C)C(=O)c2c(nc3n2CC[C@H]3OC(C)=O)C1=O | 1.4 | 3.17 | 3 | 1.37 | 10.8 | 1.69 | 3.22 | 2.11 | 24.8 | – | – | – | – | – | – | – | – | – | –
COc1cc(C(SCc2ccccc2)SCc2ccccc2)ccc1O | > 10 | > 10 | – | > 10 | > 10 | > 10 | > 10 | > 10 | – | > 10 | – | – | – | – | – | – | – | – | –
COC(=O)CCN(CCC(=O)OC)C1CC1 | – | > 100 | > 100 | > 100 | > 100 | – | > 100 | > 100 | > 100 | > 100 | – | – | – | – | – | – | – | – | –
CN1CCCCC(C(O)(c2ccccc2)c2ccccc2)C1=O (stereo not drawn) | > 100 | > 100 | > 100 | – | > 100 | – | > 100 | > 100 | > 100 | > 100 | – | – | – | – | – | – | – | – | –
Cn1ccc(C(=O)NCCCCCNC(=O)c2ccn(C)c(=O)c2O)c(O)c1=O | – | > 100 | > 100 | > 100 | > 100 | > 100 | > 100 | > 100 | > 100 | – | – | – | – | – | – | – | – | – | –
CCOC12SC(=Nc3ccc(C)cc3)NN1C(=S)N(C)N=C2C (stereo not drawn) | – | > 100 | > 100 | – | > 100 | – | > 100 | > 100 | > 100 | – | – | – | – | – | – | – | – | – | –
CCCCCCCCC/C=C1\CC(CO)(COC(=O)c2ccccc2)OC1=O (stereo not drawn) | 43.1 | 49.7 | > 100 | 72.6 | 40.2 | 43.1 | 39.5 | – | 52.9 | 43.3 | – | – | – | – | – | – | – | – | –
COC1/C=C/C(C)C(C(C)C(OC)C(C)CCC(=O)C(C)C(C/C=C/N(C)C=O)OC)OC(=O)/C=C/C=C(\C)CC(OC)C(OC)C2=CC(=O)O[C@@H](C(C)C(OC)CC(OC)/C=C/C(C)C(O)C1)[C@H]2O (stereo partly drawn) | 0.277 | – | 0.365 | 0.538 | – | – | 0.301 | 0.0755 | 0.781 | – | – | – | – | – | – | – | – | – | –
Cc1cc([N+](=O)[O-])ccc1N=NC(=O)NNc1ccc([N+](=O)[O-])cc1C | 34.4 | 63.8 | 31.9 | 28.9 | 37.8 | 29.9 | 32.9 | 29.8 | 31.5 | – | – | – | – | – | – | – | – | – | –
COc1ccc2c(c1)-c1oc3ccccc3c(=O)c1CO2 | > 100 | 77.9 | – | 68.5 | – | 78.1 | > 100 | 44.5 | > 100 | > 100 | – | – | – | – | – | – | – | – | –
COC(=O)n1c(CBr)c(Br)c2ccccc21 | 50.9 | – | 66.2 | – | > 100 | – | 82.4 | – | > 100 | – | – | – | – | – | – | – | – | – | –
COc1cc(/C=C/C(=O)OC[C@H](Br)[C@H](OC(C)=O)c2ccc3c(c2)OCO3)cc(OC)c1OC | > 100 | > 100 | > 100 | > 100 | > 100 | – | > 100 | > 100 | > 100 | > 100 | – | – | – | – | – | – | – | – | –
CC(=O)NC1=C(NCc2ccc(Cl)cc2)C(=O)c2ccccc2C1=O | 13.1 | > 50 | 13.4 | – | > 50 | – | 24.2 | 20.9 | > 50 | > 50 | – | – | – | – | – | – | – | – | –
c1ccc(C2=C(c3ccccc3)P(c3ccccc3)C2)cc1 (stereo not drawn) | > 100 | > 100 | > 100 | > 100 | – | > 100 | > 100 | – | > 100 | > 100 | – | – | – | – | – | – | – | – | –
CC(=O)Nc1ccc(-c2nnc(SCC(=O)Nc3ccccc3C)o2)cc1 | > 100 | > 100 | > 100 | – | – | – | > 100 | > 100 | > 100 | > 100 | – | – | – | – | – | – | – | – | –
COc1ccc2c(c1)CC[C@@H]1[C@@H]2CC[C@]2(C)C(=O)/C(=C/c3cc(OC)c(OC)c(OC)c3)C[C@@H]12 | 33.7 | – | > 100 | > 100 | > 100 | – | > 100 | – | > 100 | > 100 | – | – | – | – | – | – | – | – | –
COc1cc2c(c(OC)c1OC)-c1ccc(SC)c(=O)cc1C(CC(=O)Oc1cccc(C#N)c1)C2 (stereo not drawn) | 0.794 | > 77.7 | > 100 | – | > 100 | – | – | > 33.2 | > 100 | > 100 | – | – | – | – | – | – | – | – | –
CC(=O)OCC1OC(c2nnc(C)o2)=CC(OC(C)=O)C1OC(C)=O (stereo not drawn) | > 100 | > 100 | > 100 | – | > 100 | > 100 | > 100 | > 100 | > 100 | – | – | – | – | – | – | – | – | – | –
Cc1c(F)c(N)c2c(=O)cc(-c3ccc(NC(=O)C(N)CCCN=C(N)N)c(F)c3)oc2c1F (stereo not drawn) | – | 45.2 | 40.7 | > 100 | > 100 | > 100 | > 55.3 | > 100 | > 100 | > 68.2 | – | – | – | – | – | – | – | – | –
O=C(O)c1ccc(C2C3C=CC(C3)C2[N+](=O)[O-])cc1 (stereo not drawn) | > 100 | > 100 | – | – | > 100 | – | > 100 | > 100 | > 100 | > 100 | – | – | – | – | – | – | – | – | –
Nc1nc(SCCC/C=C/I)nc2c1ncn2C1OC(CO)C(O)C1O (stereo not drawn) | > 202 | > 202 | > 202 | – | > 202 | – | > 202 | > 202 | > 202 | > 202 | – | – | – | – | – | – | – | – | –
O=C(O)/C=C/C(=O)O | > 100 | > 100 | > 100 | > 100 | > 100 | > 100 | > 100 | > 100 | > 100 | – | – | – | – | – | – | – | – | – | –
O=C(O)c1ccc(Nc2nc3ccccc3nc2C(=O)O)cc1 | > 100 | > 100 | > 100 | > 100 | > 100 | > 100 | > 100 | – | > 100 | > 100 | – | – | – | – | – | – | – | – | –
Nc1ccc(-n2c(=O)oc3ccc(Cl)cc3c2=O)c(Cl)c1 | 7.21 | 1.07 | > 94.8 | 0.263 | > 100 | – | > 34.5 | 0.946 | > 38.7 | 1.6 | 0.107 | 0.0971 | 0.0934 | 0.111 | 0.0679 | 0.122 | 0.118 | 0.128 | 0.234
